Source: patent EP0120757A1, “Compositions in the form of microglobules consisting of partially quaternised, tertiary polyamines, and containing hydrophobic compounds, their preparation and application” (Etablissement Public dit: CENTRE NATIONAL DE LA RECHERCHE …, priority 1983, dated 1984)
Values after ≈ are worked out from the molar mass of the structure shown. Blank lines part the entries; values can stand above or below the compound they belong to.

Columns and labels:
[1] = Solubility of the hydrophobic drug in water without polymer
[2] = Solubilisation of griseofulvine in aqueous Q-P(TDAE)19 microglobule solution, assayed by circular dichroism at 294 nm after filtration; assay type: physicochemical; conditions: Example 5, Q-P(TDAE)19 TN = 2,5 x 10^-2 N, per ml of filtrate
Description: Les essais sont effectués à partir d'une solution basique de Q-P(TDAE)19 (TN= 2,5 x 10^-2 N). Des échantillons contenant 5ml de cette solution basique sont ajustés aux pH correspondant aux différents β par addition de HC1 0,5N).
7mg de griseofulvine en poudre sont ajoutés à chaque échantillon. On laisse soniquer pendant 5 minutes et on filtre les mélanges sur filtre millipore (0,45 micromètre). Les filtrats limpides sont conservés de la même façon que pour les exemples 1 et 2. Le dosage de la griseofulvine solubilisée est effectué dans le milieu solvant eau-acétonitrile : 20/80, V/V. On prélève dans chaque essai, 1ml de filtrat qui est dilué à 5ml par de l'acétonitrile. Les ellipticités des différentes solutions sont mesurées à λ = 294nm et comparées à des solutions standard de griseofulvine dissoutes dans le même milieu solvant.
Le tableau suivant donne les quantités de griseofulvine dissoute (en microgrammes par ml de filtrat) en fonction du pH et du degré de protonation β . La solubilité de la griseofulvine dans l'eau est de l'ordre de 13 à 15 microgrammes par ml.

[3] = Solubilisation of progestérone in aqueous Q-P(TDAE)19 microglobule solution, assayed by circular dichroism at 285 nm after filtration; assay type: physicochemical; conditions: for progestérone (microgrammes/ml): per ml of filtrate; for quantité de progestérone dissoute: Example 3, Q-P(TDAE)19 TN = 0,125 N, pH = 7,7, β = 0,06
Description: A) Les essais sont effectués à partir d'une solution basique de poly(diéthylaminométhyl thiiranne) quaternisée à 19% Q-P(TDAE)19 de formule [drawing 4] X étant un anion (par exemple un anion halogénure tel que chlorure ou bromure), à une concentration TN = (2,5+ 0,1)x 10^-2 N (polymère = 3,77mg de polymère sous forme basique par ml de solution).
Cette solution est obtenue de la façon suivante: • 270mg de chlorhydrate de Q-P(TDAE)19 sont dissous dans 10ml d'eau distillée, puis passés sur une résine échangeuse d'anions (BIO-RAD AG 1-x4-20-50 mesh-) sous forme OH et récupérés dans une fiole jaugée de 50ml.
Des échantillons contenant 5m1 de cette solution basique sont ajustés, par addition de HC1 0,5N, aux pH correspondant à différentes valeurs du degré de protonation apparent de la fonction amine tertiaire résiduelle dans le domaine 0 < β< 1. On ajoute 5mg de progestérone en poudre à chaque échantillon et les mélanges sont soit soniqués pendant 5 minutes soit agités pendant 48 heures.
Après dissolution, chaque échantillon est filtré sur filtre millipore (0,45 micromètres). Les filtrats sont clairs et limpides. Le système "véhicule-drogue" peut être conservé de deux façons différentes: • - en solution, pendant quelques mois au réfrigérateur • - sous forme solide, en lyophilisant les filtrats et en les conservant sous vide. Le filtrat lyophilisé se solubilise rapidement en solution aqueuse.
Le dosage de la progestérone solubilisée ne peut être fait que par extraction de cette dernière des microémulsions. Cette extraction est obtenue par éclatement des véhicules globulaires dans un mélange filtrat-éthanol absolu dans le rapport V/V : 20/80. 1ml de chaque filtrat est dilué à 5ml par addition d'éthanol. Les différents filtrats présentent dans la région 350-250nm des bandes dichrolques caractéristiques de la progestérone. Le signal de dichroisme circulaire à λ = 285nm est utilisable pour évaluer la quantité de progestérone présente dans chaque filtrat par comparaison avec les ellipticités de solutions standard de progestérone dissoute dans le même milieu solvant.
Le tableau suivant donne les quantités de progestérone solubilisée (en microgramme par ml de filtrat) en fonction du pH et du degré de protonation β pour chaque essai.
On opère comme à l'exemple 1 mais les essais sont effectués à partir d'une concentration TN = 0,15N de Q-P(TDAE)19 sous forme basique. Des échantillons contenant 2ml de cette solution sont ajustés à différents β par addition de HC1 N et additionnés de 5mg de progestérone. Après sonication pendant 5 minutes, les mélanges sont filtrés sur filtre millipore (0,45 micromètre). Le dosage de la progestérone solubilisée est fait comme précédemment. 0,2ml de chaque filtrat sont dilués à 2ml par de l'éthanol absolu. Les ellipticités sont mesurées â λ = 285nm et comparées aux solutions standard de progestérone effectuées dans les mêmes conditions.
Le tableau suivant donne les quantités de progestérone solubilisée (en microgrammes par ml de filtrat) en fonction du pH et du degré de protonation S.
Deux essais sont réalisés dans les mêmes conditions: concentration en polymère, β et pH identiques mais on ajoute au deuxième essai, du chlorure de sodium de telle façon que la solution soit à 0,9X en NaCl.
Deux échantillons contenant 2m1 de solution basique de Q-P(TDAE)19 (TN = 0,125 N) sont ajustés à pH = 7,7 et à β= 0,06 par addition de 0,06ml de HCl N. Dans le deuxième échantillon, on ajoute 18mg de NaCl. 5mg de progestérone sont additionnés à chaque échantillon. Les mélanges sont soniqués pendant 5 minutes. Le protocole de filtration et de dosage de la progestérone solubilisée est le même qu'à l'exemple 2.

solubility [1]: 13 to 15 µg/mL (≈ 36.9 to 42.5 µM)
griseofulvine (microgrammes/ml) ([2]; essai 1, pH 7,6, β 0,02): 47 microgrammes/ml
griseofulvine (microgrammes/ml) ([2]; essai 2, pH 7,08, β 0,093): 43 microgrammes/ml
griseofulvine (microgrammes/ml) ([2]; essai 3, pH 7,0, β 0,185): 36 microgrammes/ml
griseofulvine (microgrammes/ml) ([2]; essai 4, pH 6,95, β 0,26): 30 microgrammes/ml
griseofulvine (microgrammes/ml) ([2]; essai 5, pH 6,95, β 0,32): 26 microgrammes/ml
griseofulvine (microgrammes/ml) ([2]; essai 6, pH 6,95, β 0,42): 22 microgrammes/ml
griseofulvine (microgrammes/ml) ([2]; essai 7, pH 6,83, β 0,51): 18 microgrammes/ml
griseofulvine (microgrammes/ml) ([2]; essai 8, pH 6,67, β 0,673): 15 microgrammes/ml
griseofulvine (microgrammes/ml) ([2]; essai 9, pH 6,20, β 0,89): 15 microgrammes/ml
griseofulvine (microgrammes/ml) ([2]; essai 10, pH 4,5 à 4,6, β 1): 15 microgrammes/ml
Compound: COC1=CC(=O)C[C@@H](C)[C@]12Oc1c(Cl)c(OC)cc(OC)c1C2=O [griseofulvine]

solubilité dans l'eau ([1]; no polymer, approximate values, no source stated): 11 à 12 microgrammes par ml
progestérone (microgrammes/ml) ([3]; Example 1, Q-P(TDAE)19 TN = 2,5 x 10^-2 N, essai 1, pH 7,5, β 0,07): 75 microgrammes/ml
progestérone (microgrammes/ml) ([3]; Example 1, Q-P(TDAE)19 TN = 2,5 x 10^-2 N, essai 2, pH 6,97, β 0,135): 62-64 microgrammes/ml
progestérone (microgrammes/ml) ([3]; Example 1, Q-P(TDAE)19 TN = 2,5 x 10^-2 N, essai 3, pH 6,95, β 0,20): 48-50 microgrammes/ml
progestérone (microgrammes/ml) ([3]; Example 1, Q-P(TDAE)19 TN = 2,5 x 10^-2 N, essai 4, pH 6,95, β 0,26): 38 microgrammes/ml
progestérone (microgrammes/ml) ([3]; Example 1, Q-P(TDAE)19 TN = 2,5 x 10^-2 N, essai 5, pH 6,95, β 0,38): 26 microgrammes/ml
progestérone (microgrammes/ml) ([3]; Example 1, Q-P(TDAE)19 TN = 2,5 x 10^-2 N, essai 6, pH 6,80, β 0,63): 14-16 microgrammes/ml
progestérone (microgrammes/ml) ([3]; Example 1, Q-P(TDAE)19 TN = 2,5 x 10^-2 N, essai 7, pH 6,55, β 0,75): 11-12 microgrammes/ml
progestérone (microgrammes/ml) ([3]; Example 1, Q-P(TDAE)19 TN = 2,5 x 10^-2 N, essai 8, pH 6,15, β 0,88): 11-12 microgrammes/ml
progestérone (microgrammes/ml) ([3]; Example 2, Q-P(TDAE)19 TN = 0,15N, essai 1, pH 7,50, β 0,13): 315 microgrammes/ml
progestérone (microgrammes/ml) ([3]; Example 2, Q-P(TDAE)19 TN = 0,15N, essai 2, pH 7,50, β 0,17): 300 microgrammes/ml
progestérone (microgrammes/ml) ([3]; Example 2, Q-P(TDAE)19 TN = 0,15N, essai 3, pH 7,50, β 0,26): 225 microgrammes/ml
progestérone (microgrammes/ml) ([3]; Example 2, Q-P(TDAE)19 TN = 0,15N, essai 4, pH 7,40, β 0,47): 185-190 microgrammes/ml
progestérone (microgrammes/ml) ([3]; Example 2, Q-P(TDAE)19 TN = 0,15N, essai 5, pH 7,36, β 0,51): 80 microgrammes/ml
progestérone (microgrammes/ml) ([3]; Example 2, Q-P(TDAE)19 TN = 0,15N, essai 6, pH 7,25, β 0,58): 70 microgrammes/ml
progestérone (microgrammes/ml) ([3]; Example 2, Q-P(TDAE)19 TN = 0,15N, essai 7, pH 4,8, β 0,98): 10 à 12 microgrammes/ml
quantité de progestérone dissoute ([3]; with NaCl, solution at 0,9X en NaCl (18mg in 2ml)): 375 microgrammes par ml de filtrat
quantité de progestérone dissoute ([3]; without NaCl): 375 microgrammes par ml de filtrat
Compound: progestérone
